Test [1] deals with T1, Amine oxidase [flavin-containing] A (Homo sapiens, UniProt P21397).
T1 sequence (P21397 whole entry): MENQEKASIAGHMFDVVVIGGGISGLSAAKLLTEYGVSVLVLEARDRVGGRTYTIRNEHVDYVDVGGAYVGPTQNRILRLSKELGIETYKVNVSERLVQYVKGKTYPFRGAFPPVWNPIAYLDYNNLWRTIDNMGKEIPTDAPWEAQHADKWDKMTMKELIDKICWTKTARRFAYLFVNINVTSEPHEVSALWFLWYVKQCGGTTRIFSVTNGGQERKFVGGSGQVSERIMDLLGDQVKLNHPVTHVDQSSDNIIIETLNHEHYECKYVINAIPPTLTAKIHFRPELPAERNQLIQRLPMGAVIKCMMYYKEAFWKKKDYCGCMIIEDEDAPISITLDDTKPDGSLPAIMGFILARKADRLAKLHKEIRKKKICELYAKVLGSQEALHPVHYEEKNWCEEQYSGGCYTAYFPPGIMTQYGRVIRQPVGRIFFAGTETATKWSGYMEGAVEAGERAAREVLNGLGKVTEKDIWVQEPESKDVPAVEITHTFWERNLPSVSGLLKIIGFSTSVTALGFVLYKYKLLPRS
Nature of the test: Inhibition of human recombinant MAO-A expressed in baculovirus infected BTI insect cells at 20 uM using kynuramine as substrate after 30 mins by fluorescence assay relative to control. Conditions: 0.5 h.

For test [2], the target named is Cholinesterase (Equus caballus, UniProt P81908). Nature of the test: Inhibition of equine serum BChE using butyrylthiocholine chloride as substrate incubated for 15 mins by Ellman's method.
Cholinesterase, sequence (P81908 whole entry): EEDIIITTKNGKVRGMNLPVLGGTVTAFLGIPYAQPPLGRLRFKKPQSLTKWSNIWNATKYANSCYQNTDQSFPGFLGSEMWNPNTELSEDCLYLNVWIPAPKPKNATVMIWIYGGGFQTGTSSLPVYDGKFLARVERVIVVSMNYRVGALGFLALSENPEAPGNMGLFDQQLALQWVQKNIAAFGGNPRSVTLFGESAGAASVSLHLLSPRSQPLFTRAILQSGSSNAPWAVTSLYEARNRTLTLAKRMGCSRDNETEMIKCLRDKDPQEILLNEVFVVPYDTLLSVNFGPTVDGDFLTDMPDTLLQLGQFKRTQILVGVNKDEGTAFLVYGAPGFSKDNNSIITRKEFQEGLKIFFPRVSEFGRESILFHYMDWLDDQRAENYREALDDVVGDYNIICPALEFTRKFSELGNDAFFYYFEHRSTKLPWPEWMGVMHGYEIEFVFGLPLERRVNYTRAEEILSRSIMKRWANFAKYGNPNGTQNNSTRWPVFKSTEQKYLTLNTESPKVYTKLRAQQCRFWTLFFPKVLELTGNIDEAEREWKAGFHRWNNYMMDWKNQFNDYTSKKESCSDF
The target in test [3] is Butyrylcholinesterase (Rattus norvegicus, UniProt Q9JKC1). Nature of the test: Inhibition of rat serum BChE using butyrylthiocholine chloride as substrate incubated for 15 mins by Ellman's method. For orientation: In Ellman's method for cholinesterases, released thiocholine reacts with DTNB.
Butyrylcholinesterase, sequence (Q9JKC1 whole entry): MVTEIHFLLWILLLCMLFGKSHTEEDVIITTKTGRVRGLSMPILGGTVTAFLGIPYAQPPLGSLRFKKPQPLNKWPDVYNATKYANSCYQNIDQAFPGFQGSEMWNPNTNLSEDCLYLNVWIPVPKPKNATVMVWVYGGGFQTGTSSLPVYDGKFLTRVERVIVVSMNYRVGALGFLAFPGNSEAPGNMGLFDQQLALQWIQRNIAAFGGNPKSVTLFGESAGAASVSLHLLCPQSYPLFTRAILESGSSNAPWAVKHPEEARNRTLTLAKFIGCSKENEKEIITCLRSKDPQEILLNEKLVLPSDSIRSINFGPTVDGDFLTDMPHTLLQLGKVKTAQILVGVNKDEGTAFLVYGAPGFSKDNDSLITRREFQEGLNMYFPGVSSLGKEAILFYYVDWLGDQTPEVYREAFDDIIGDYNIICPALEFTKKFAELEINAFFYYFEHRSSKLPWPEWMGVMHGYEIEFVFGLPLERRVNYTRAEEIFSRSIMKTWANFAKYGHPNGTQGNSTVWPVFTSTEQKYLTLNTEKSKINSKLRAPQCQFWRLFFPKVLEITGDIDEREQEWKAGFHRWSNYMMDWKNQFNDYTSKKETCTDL
A short description of test [4]: Selectivity index, ratio of IC50 for equine serum BChE to IC50 for electric eel AChE.
In test [5] the target is Acetylcholinesterase (Electrophorus electricus, UniProt O42275). The test can be described thus: Inhibition of electric eel AChE using acetylthiocholine chloride as substrate incubated for 15 mins by Ellman's method.
Acetylcholinesterase (Electrophorus electricus, UniProt O42275), sequence (O42275 whole entry): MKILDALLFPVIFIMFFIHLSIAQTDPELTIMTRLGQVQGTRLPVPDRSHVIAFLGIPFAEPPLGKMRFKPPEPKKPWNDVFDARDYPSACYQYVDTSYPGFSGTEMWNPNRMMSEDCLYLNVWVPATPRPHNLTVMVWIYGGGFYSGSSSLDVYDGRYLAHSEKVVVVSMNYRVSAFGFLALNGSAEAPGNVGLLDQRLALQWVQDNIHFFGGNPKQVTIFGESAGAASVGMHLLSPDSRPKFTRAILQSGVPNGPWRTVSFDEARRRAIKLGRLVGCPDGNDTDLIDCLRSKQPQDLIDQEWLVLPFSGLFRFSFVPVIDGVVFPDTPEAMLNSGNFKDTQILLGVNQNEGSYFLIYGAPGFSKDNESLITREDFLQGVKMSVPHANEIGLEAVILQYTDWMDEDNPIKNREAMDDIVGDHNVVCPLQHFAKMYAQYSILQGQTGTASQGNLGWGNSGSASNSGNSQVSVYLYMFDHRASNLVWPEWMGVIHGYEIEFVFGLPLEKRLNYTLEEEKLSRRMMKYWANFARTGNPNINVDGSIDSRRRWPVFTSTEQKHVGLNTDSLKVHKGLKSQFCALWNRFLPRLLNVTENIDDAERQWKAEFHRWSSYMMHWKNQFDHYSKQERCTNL
Test [6] has as its target T2, Acetylcholinesterase (Rattus norvegicus, UniProt P37136).
T2 sequence (P37136 whole entry): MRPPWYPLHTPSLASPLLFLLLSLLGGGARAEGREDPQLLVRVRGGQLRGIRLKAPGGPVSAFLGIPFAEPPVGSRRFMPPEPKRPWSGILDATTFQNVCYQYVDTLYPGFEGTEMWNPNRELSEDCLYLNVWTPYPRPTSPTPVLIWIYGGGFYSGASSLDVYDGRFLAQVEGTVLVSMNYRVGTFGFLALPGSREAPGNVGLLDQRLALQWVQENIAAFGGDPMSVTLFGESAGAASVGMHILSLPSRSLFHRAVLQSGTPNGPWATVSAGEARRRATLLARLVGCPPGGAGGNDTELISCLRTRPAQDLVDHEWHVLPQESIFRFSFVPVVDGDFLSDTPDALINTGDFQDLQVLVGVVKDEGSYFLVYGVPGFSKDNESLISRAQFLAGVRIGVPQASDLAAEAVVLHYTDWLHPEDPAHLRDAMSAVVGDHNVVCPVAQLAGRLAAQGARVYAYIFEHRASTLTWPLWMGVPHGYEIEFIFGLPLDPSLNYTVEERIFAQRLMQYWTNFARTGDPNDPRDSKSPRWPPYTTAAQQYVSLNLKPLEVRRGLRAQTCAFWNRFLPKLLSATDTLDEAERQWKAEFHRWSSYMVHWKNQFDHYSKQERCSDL
Nature of the test: Inhibition of rat cortex homogenate AChE using acetylthiocholine chloride as substrate incubated for 15 mins by Ellman's method.

Test [7] deals with T3, Amine oxidase [flavin-containing] B (Homo sapiens, UniProt P27338).
T3 sequence (P27338 whole entry): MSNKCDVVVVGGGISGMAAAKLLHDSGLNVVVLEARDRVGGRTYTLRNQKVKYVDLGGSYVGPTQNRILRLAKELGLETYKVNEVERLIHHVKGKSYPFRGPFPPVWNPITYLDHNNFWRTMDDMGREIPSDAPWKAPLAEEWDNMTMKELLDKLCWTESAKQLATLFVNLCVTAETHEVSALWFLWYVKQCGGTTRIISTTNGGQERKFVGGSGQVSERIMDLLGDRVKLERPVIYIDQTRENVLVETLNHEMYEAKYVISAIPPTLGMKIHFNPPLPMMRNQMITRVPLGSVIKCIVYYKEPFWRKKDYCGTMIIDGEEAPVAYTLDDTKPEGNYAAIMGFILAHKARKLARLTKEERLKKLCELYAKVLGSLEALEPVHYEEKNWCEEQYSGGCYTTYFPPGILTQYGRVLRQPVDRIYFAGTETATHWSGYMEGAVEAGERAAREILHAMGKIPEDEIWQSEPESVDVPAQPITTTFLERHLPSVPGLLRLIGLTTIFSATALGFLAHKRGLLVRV
The test can be described thus: Inhibition of human recombinant MAO-B expressed in baculovirus infected BTI insect cells using kynuramine as substrate after 30 mins by fluorescence assay. The test is classed as cell-based.

Molecules are shown by their SMILES.

The term inhibition denotes the change of the read-out against control, counted positive when it falls. For orientation: IC50 means the point on the concentration scale where inhibition reaches its midpoint. On to `CN(CCN1C(=O)c2ccccc2C1=O)Cc1ccccc1`, for which the inhibition at 20 µM in test [1] is less than 5%. In addition, the IC50 in test [2] turned out to be 22.5 µM; in test [3], 26.2 µM; in test [5] it was 15.9 µM; in test [6], 16 µM; in test [7], 7.3 µM. Besides, the Ratio IC50 in test [4] was 1.4.

In the case of `CCN(CCN1C(=O)c2ccccc2C1=O)Cc1ccccc1OC`, the inhibition at 20 µM in test [1] is less than 5%. The IC50 in test [2] turned out to be 18.3 µM; in test [3] it was 15.9 µM; in test [5] it was 3.6 µM; in test [6], 0.9 µM; in test [7] it was 6.9 µM. Besides, the Ratio IC50 in test [4] was 5.1.

Turning to `C#CCN(CCCN1C(=O)c2ccccc2C1=O)Cc1ccccc1OC`, the inhibition at 20 µM in test [1] was less than 5%. In addition, the IC50 in test [2] is 5.8 µM; in test [3], 5.3 µM; in test [5] it was 13.5 µM; in test [6], 4.1 µM; in test [7], 7.6 µM. In test [4], the Ratio IC50 came out at 0.43.

For the compound `CCN(CCN1C(=O)c2ccccc2C1=O)Cc1ccccc1`, in test [1], the inhibition at 20 µM is less than 5%. Moreover, the IC50 stood at 21.9 µM in test [2]; 16.1 µM in test [3]; 9.3 µM in test [5]; 13.2 µM in test [6]; 8.3 µM in test [7]. Also, the Ratio IC50 in test [4] stood at 2.4.

For the compound `CN(CCCN1C(=O)c2ccccc2C1=O)Cc1ccccc1`, the inhibition at 20 µM in test [1] was less than 5%. The IC50 worked out at 22.9 µM in test [2]; 22.8 µM in test [3]; 8.2 µM in test [5]; 12.8 µM in test [6]; 6.1 µM in test [7]. Besides, the Ratio IC50 in test [4] turned out to be 2.8.

Regarding `C#CCN(CCCCCN1C(=O)c2ccccc2C1=O)Cc1ccccc1`, the inhibition at 20 µM in test [1] was less than 5%. Besides, the IC50 in test [2] was 13.9 µM; in test [3] it was 58.5 µM; in test [5], 3.4 µM; in test [6] it was 10.4 µM; in test [7], 5.9 µM. In test [4], the Ratio IC50 was determined as 4.1.

For `CC(C)N1CCN(CCCCCCN2C(=O)c3ccccc3C2=O)CC1`, the inhibition at 20 µM in test [1] was less than 5%. The IC50 in test [2] was 19.4 µM; in test [3] it was 27.9 µM; in test [5], 8.8 µM; in test [6], 6.3 µM; in test [7] it was 13.1 µM. Moreover, the Ratio IC50 in test [4] was determined as 2.2.

As for `COc1ccccc1CN(C)CCCCCCN1C(=O)c2ccccc2C1=O`, the inhibition at 20 µM in test [1] is less than 5%. In addition, the IC50 in test [2] worked out at 30.6 µM; in test [3], 42.9 µM; in test [5] it was 1.1 µM; in test [6], 0.6 µM; in test [7] it was 11.3 µM. In test [4], the Ratio IC50 came out at 27.8.

With `CN(CCCCN1C(=O)c2ccccc2C1=O)Cc1ccccc1`, the inhibition at 20 µM in test [1] is less than 5%. The IC50 in test [2] was 14.5 µM; in test [3] it was 8.4 µM; in test [5], 2.6 µM; in test [6], 4.3 µM; in test [7] it was 4.2 µM. For the same compound, the Ratio IC50 in test [4] was found to be 5.6.

On to `CC(C)N1CCN(CCCN2C(=O)c3ccccc3C2=O)CC1`, for which, in test [1], the inhibition at 20 µM is less than 5%. Moreover, the IC50 in test [2] amounted to 34.9 µM; in test [3] it was 32.9 µM; in test [5], 12.9 µM; in test [6], 8.3 µM; in test [7] it was 10.4 µM. In addition, in test [4], the Ratio IC50 worked out at 2.7.

As for `C#CCN(CCCCN1C(=O)c2ccccc2C1=O)Cc1ccccc1OC`, the inhibition at 20 µM in test [1] was less than 5%. Also, the IC50 in test [2] worked out at 8.3 µM; in test [3], 39 µM; in test [5], 3.4 µM; in test [6], 5.1 µM; in test [7], 5.6 µM. Moreover, in test [4], the Ratio IC50 is 2.4.

As for `C#CCN(CCCCCCN1C(=O)c2ccccc2C1=O)Cc1ccccc1OC`, the inhibition at 20 µM in test [1] was less than 5%. For the same compound, the IC50 in test [2] is 13.4 µM; in test [3], 22.5 µM; in test [5] it was 4.9 µM; in test [6] it was 4.3 µM; in test [7] it was 9.1 µM. Also, in test [4], the Ratio IC50 turned out to be 2.7.

For the compound `CN(CCCCCCN1C(=O)c2ccccc2C1=O)Cc1ccccc1`, the inhibition at 20 µM in test [1] was less than 5%. The IC50 was found to be 17.9 µM in test [2]; 20.7 µM in test [3]; 2.1 µM in test [5]; 3.9 µM in test [6]; 8.3 µM in test [7]. Besides, the Ratio IC50 in test [4] amounted to 8.5.

For the compound `CC(C)N1CCN(CCCCN2C(=O)c3ccccc3C2=O)CC1`, the inhibition at 20 µM in test [1] is less than 5%. The IC50 in test [2] came out at 23.4 µM; in test [3] it was 17.9 µM; in test [5] it was 5.3 µM; in test [6], 3.9 µM; in test [7], 8.9 µM. For the same compound, the Ratio IC50 in test [4] was 4.4.

For the compound `COc1ccccc1CN(C)CCCN1C(=O)c2ccccc2C1=O`, the inhibition at 20 µM in test [1] is less than 5%. In addition, the IC50 in test [2] came to 3.7 µM; in test [3], 27.7 µM; in test [5] it was 4.6 µM; in test [6] it was 9.8 µM; in test [7], 9.8 µM. For the same compound, in test [4], the Ratio IC50 was determined as 0.8.

Consider `CC(C)N1CCN(CCCCCN2C(=O)c3ccccc3C2=O)CC1`, for which, in test [1], the inhibition at 20 µM is less than 5%. Also, the IC50 turned out to be 34.5 µM in test [2]; 16.3 µM in test [3]; 7.9 µM in test [5]; 5.4 µM in test [6]; 12.6 µM in test [7]. Besides, the Ratio IC50 in test [4] is 4.4.

Turning to `CCN(CCCN1C(=O)c2ccccc2C1=O)Cc1ccccc1`, the inhibition at 20 µM in test [1] is less than 5%. In addition, the IC50 was 9.3 µM in test [2]; 13.2 µM in test [3]; 3.3 µM in test [5]; 1.1 µM in test [6]; 6.9 µM in test [7]. Further, in test [4], the Ratio IC50 came to 2.8.

With `C#CCN(CCCCCCN1C(=O)c2ccccc2C1=O)Cc1ccccc1`, the inhibition at 20 µM in test [1] is less than 5%. In addition, the IC50 came to 7.6 µM in test [2]; 16.2 µM in test [3]; 6.8 µM in test [5]; 7.6 µM in test [6]; 8.2 µM in test [7]. Besides, the Ratio IC50 in test [4] worked out at 1.1.

Turning to `C#CCN(CCCCN1C(=O)c2ccccc2C1=O)Cc1ccccc1`, the inhibition at 20 µM in test [1] was less than 5%. The IC50 in test [2] was 12.7 µM; in test [3], 32.4 µM; in test [5], 4.9 µM; in test [6], 4 µM; in test [7] it was 6.5 µM. The Ratio IC50 in test [4] was found to be 2.6.

On to `COc1ccccc1CN(C)CCN1C(=O)c2ccccc2C1=O`, for which, in test [1], the inhibition at 20 µM was less than 5%. The concentration for half-maximal inhibition (IC50) was 11.9 µM in test [2]; 14.8 µM in test [3]; 6.2 µM in test [5]; 13.9 µM in test [6]; 8.4 µM in test [7]. In addition, the Ratio IC50 in test [4] was determined as 1.9.

As for `C#CCN(CCCCCN1C(=O)c2ccccc2C1=O)Cc1ccccc1OC`, in test [1], the inhibition at 20 µM was less than 5%. In addition, the IC50 in test [2] came out at 26.3 µM; in test [3], 44.4 µM; in test [5] it was 9.6 µM; in test [6] it was 14 µM; in test [7] it was 6.3 µM. Moreover, the Ratio IC50 in test [4] amounted to 2.7.
